This is an account of results in US20040266886A1, “Cosmetic and/or pharmaceutical superfatting preparations” (priority 2001, published 2004).

Data set [1] concerns pig's epidermis. In words: Dermatological compatibility: transepidermal water loss (TEWL), gravimetric. The settings on record: for TEWL [%-rel] = [treated/untreated * 100] − 100%: […] by weight fatty acid partial glyceride in 17% by weight Plantapon PS 10, pH 5.5, skin treated 30 minutes at 40° C., lower value = better compatibility.
Experimental: (§1) Dermatological compatibility was evaluated by determining the transepidermal water loss (TEWL) in a pig's epidermis. To this end, defined pieces of skin were treated with the various test solutions for 30 minutes at 40° C. and the TEWL value was gravimetrically determined. The test solutions were mixtures of 17% by weight Plantapon® PS 10 (sodium lauryl ether sulfate and Lauryl Glycoside, Cognis Düsseldorf) with 1.5% by weight fatty acid partial glycerides (see Table 1) in preservative-containing water (WAS 10% by weight). The pH was adjusted to 5.5 with citric acid.
The test system of data set [2] is pig's epidermis. As to conditions: pH 5.5.
Experimental: as §1

Where two headings read alike, the source gives them in different places.

Turning to `CCCCCCCCCCCC(=O)OCC(O)CO` (centres unmarked) [Example 4, Lauric acid monoglyceride (>90)], in the data set on pig's epidermis [1], the “TEWL [%-rel] = [treated/untreated * 100] − 100%” value is given as 10.5 %-rel.
Take “Glycerol monocaprylate (>90) [Example 2]”: the “Transepidermal water loss / dermatological compatibility (in words)” value with pig's epidermis [1] (compared with mixtures of 65% by weight monoglyceride and 35% by weight diglyceride) is on record as “very good compatibility”.
For “Isostearic acid mono/diglyceride (65:35) [Example 7]”, the “TEWL [%-rel] = [treated/untreated * 100] − 100%” value with pig's epidermis [2] worked out at 22.0 %-rel.
For “Isostearic acid monoglyceride (>90) [Example 8]”, the “TEWL [%-rel] = [treated/untreated * 100] − 100%” value with pig's epidermis [1] came out at 18.5 %-rel.
In the case of “Lauric acid mono/diglyceride (65:35) [Example 3]”, the “TEWL [%-rel] = [treated/untreated * 100] − 100%” value in the data set on pig's epidermis [2] is 20.5 %-rel.
